# According to patent US6870069B2, “Phenyloxyaniline derivatives” (National Institute of Radiological Sciences, priority 2003, dated 2005):
# How the values were obtained:
# [1] = Partition coefficient (log P) by octanol/water (pH 7.4) partition method; assay type: physicochemical
# Protocol: (§1) On the other hand, affinity of FMDAA1106 and FEDAA1106 to central benzodiazepine receptor (CBR) was determined (Table 1) using [^11C]flumazenil which is a selective ligand for CBR. As a result, affinity of FEDAA1106 and FMDAA1106 to CBR was not less than 10 μM and was about 10,000-fold weaker than the affinity of PBR. […] Incidentally, partition coefficients (log P) of the two ligands were measured by an octanol/water (pH 7.4) partition method.
# [2] = target: T1, peripheral benzodiazepine receptor (PBR) (Rattus norvegicus, UniProt P16257); assay: In vitro affinity to PBR: displacement of [11C]DAA1106 binding on rat brain sections (autoradiography, olfactory bulb ROI); settings: for IC50: [11C]DAA1106 1 nM, rat brain sections, olfactory bulb, 37° C. 30 minutes, probit method
# T1 construct: Sagittal sections of the rat were prepared using Crystat microtome; from tissue; host or cells: rat brain sagittal sections (ROI: olfactory bulb)
# Protocol: Under anesthetization with ether, male Sprague-Dawley rats (250 to 300 g; n=4) were slaughtered and the brain was quickly cut and frozen in dry ice. Sagittal sections of the rat were prepared using Crystat microtome (MICROM HM560, Carl Zeiss GmbH, Germany). The sections were previously incubated in a 50 mM Tris buffer (pH=7.4) for 30 minutes. After that, the sections were taken out and again incubated at 37° C. for 30 minutes in 50 mM Tris buffer (pH=7.4) containing each of the following reagents at the same time.
# After completion of the incubation, the section was taken out and dipped in an ice-cooled Tris buffer for 2 minutes twice. The section was dipped in ice-cooled distilled water and then dried. […] A region of interest (ROI) was defined as an olfactory bulb and radioactivity was expressed in terms of a photo-stimulated-luminescence (PSL)/mm^2 region. Specific binding of [^11C]DAA1106 in the presence of DAA1106, PK11156, FMDAA1106 and FEDAA1106 of various concentrations was determined and IC50 (nM) of those reagents was calculated by a probit method.
# [3] = target: T2, central benzodiazepine receptor (CBR); assay: Affinity to CBR using [11C]flumazenil, a selective ligand for CBR; assay type: binding, rat; settings: [11C]flumazenil
# T2 construct: IC50 CBR; other: [11C]flumazenil
# Protocol: as §1
# [4] = tested on: central benzodiazepine receptor (CBR); assay: as above; assay type: binding, rat; settings: CBR versus PBR selectivity
# Protocol: as §1
logP [1],IC50 [2],IC50 [3],affinity to PBR as compared with DAA1106 ([2]; relative to DAA1106),affinity to PBR as compared with PK11195 ([2]; relative to PK11195),affinity to CBR weaker than the affinity of PBR [4],Structure (SMILES)
3.65,1.62 nM,> 10000 nM,–,–,–,"COc1ccc(OC)c(CN(C(C)=O)c2cc(F)ccc2Oc2ccccc2)c1 [DAA1106, N-(2,5-dimethoxybenzyl)-N-(5-fluoro-2-phenoxyphenyl)acetamide, reference compound]"
3.81,0.77 nM,> 10000 nM,two-fold higher affinity,about ten-fold stronger affinity,"about 10,000 fold","COc1ccc(OCCF)c(CN(C(C)=O)c2cc(F)ccc2Oc2ccccc2)c1 [FEDAA1106, N-[2-(2-fluoro)ethyl-5-methoxybenzyl]-N-(5-fluoro-2-phenoxyphenyl)acetamide]"
–,–,> 10000 nM,–,–,–,"CCC(C)N(C)C(=O)c1cc2ccccc2c(-c2ccccc2Cl)n1 (stereo not shown) [PK11195, N-methyl-N-(1-methylpropyl)-1-(2-chlorophenyl)-isoquinoline-3-carboxamide, reference compound]"
